Results on seven molecules are retold here after patent US7781417B2, “Cyclodextrin dimers and derivatives thereof, methods for preparing them and their use, in particular, for the solubilizing pharmacologically active substances” (Centre National de la Recherche Scientifique, priority 2003, dated 2010).

As usually defined, the IC50 is the concentration at which inhibition is half-maximal.

The target of data set [1] is mannose-specific lectin concanavalin A (ConA) (Canavalia ensiformis, UniProt P02866). The data set is described as follows: ELLA (Enzyme-Linked Lectin Assay): inhibition of the combination of yeast mannan and horse-radish peroxidase-labelled ConA. It counts as binding. As to conditions: for Relative affinity / Relative molar affinity: relative to Me-α-D-Glcp = 1. As for the experimental part:
The affinity of the ureido-, thioureido-, ureidocysteaminyl- and thioureidocysteaminyl-cyclodextrin dimers of the invention which incorporate glucide substituents for specific membrane lectins in vitro is evaluated according to the ELLA (“Enzyme-Linked Lectin Assay”) protocol. Numerous examples of application of this protocol can be found in the article by J. J. Lundquist and E. J. Toon in Chem. Rev. 2002, 102, pp. 555-578. This technique measures the ability of a soluble mono- or oligosaccharide ligand to inhibit the association between a complementary lectin and another reference ligand bound to a plastic support microplate. Thus, the ureido-, thioureido-, ureidocysteaminyl- and thioureidocysteaminyl-cyclodextrin dimers carrying α-D-mannopyranosyl substituents are recognized by concanavalin A or by the mannose-specific lectin of the macrophages, the derivatives with β-lactosyl substituents are recognized by the lactose-specific lectin of Arachys hypogaea or hepatocytes, and the derivatives comprising the tetrasaccharide sialyl-Lewis X substituent are recognized by the selectins of the endothelium involved in the inflammation method.
The affinity of compounds no. 5 to 8 for the mannose-specific lectin concanavalin A (ConA) was evaluated according to the test ELLA protocol. The concentration of compounds no. […] The IC50 values are inversely proportional to the respective affinities.
The microtitration plate cells (Nunc-Immuno™ plates MaxiSorp™) are charged with 100 μl of a yeast mannan stock solution (Sigma, […]) in a saline phosphate buffer solution (PBS; pH 7.3 containing Ca^2+ 0.1 mM and Mn^2+ 0.1 mM) overnight at ambient temperature. The cells are washed (3×300 μl) with a buffer solution containing 0.05% (v/v) Tween 20 (PBTS). This washing protocol is repeated after each incubation during the test. A bovine serum albumin solution (BSA, 1%) in PBS (150 μg/cell) is then added to the cells, followed by incubation for 1 h at 37° C. and then washing.
To determine the optimum lectin concentration for the inhibition studies, 100 μl of a series of Con A solutions labelled with 10^−1 to 10^−5 mg.ml^−1 horse-radish peroxidase in PBS is added to the cells charged with the mannan, followed by treating as indicated above. After incubation at 37° C. for 1 hour, the plates are washed (PBST) and a solution (50 μl) of the diammonium salt of 2,2′-azinobis(3-ethylbenzothiazoline-6-sulphonic) acid (ABTS, 1 mg in 4 ml) in citrate buffer is added (0.2 M; pH 4.0 with 0.015% of oxygenated water). The reaction is stopped after 20 minutes by adding 50 μl/cell sulphuric acid 1 M and the absorbances are measured at 415 nm using an ELISA reader. The sample cells contain the citrate-phosphate buffer. The concentration of lectin marked with peroxidase giving an absorbance value between 0.8 and 1.0 (typically between 10^−2 and 10^−3 mg/ml^−1) was used in the inhibition assays.
For inhibition assays, stock solutions of compounds no. 5 to 8 were used at a concentration of 5 to 7 mg/ml^−1 in PBS. In a series of experiments, ConA marked with horse-radish peroxidase of suitable concentration as indicated above (60 μl/cell) is added to the solutions of each compound (60 μl/cell) in PBS, double-diluted in sequence, in a Nunclon™(Delta) microtitration plate which is incubated at 37° C. for 1 hour. The solutions (100 μl/cell) are then transferred to a microtitration plate charged with mannan and treated as indicated above, then being incubated at 37° C. for 1 hour. The cells are washed (PBST) and ABTS solution added (50 μl/cell). After 20 minutes, the reaction is stopped (sulphuric acid) and the absorbances are measured.
The inhibition percentage is calculated by the formula: […]

Data set [2] can be described thus: inclusion of Taxotere into the cyclodextrin dimer: solubility of Taxotere in sterile water. It counts as physicochemical. The protocol:
Taxotere in the pure state is used to start with and 8.3 mg (9.7 μmol) of this product is dispersed in 1 ml of a solution containing 10 mmol.l^−1 of compound no. 3 in sterile water, then the obtained suspension is stirred at 70° C. until a clear solution is obtained which signals the complexation of the Taxotere.
Taxotere in the pure state is used to start with and 6.6 mg (7.7 μmol) of this product is dispersed in 1 ml of a solution containing 8 mmol/l^−1 of compound no. 6 in sterile water, then the obtained suspension is stirred at 70° C. until a clear solution is obtained which signals the complexation of the Taxotere.
Taxotere in the pure state is used to start with and 5.8 mg ([…]) of this product is dispersed in 1 ml of a solution containing 7 mmol/l^−1 of compound no. 6 in sterile water, then the obtained suspension is stirred at 70° C. until a clear solution is obtained which signals the complexation of the Taxotere.

Data set [3] is described as follows: solubility in water of the cyclodextrin (dimer) derivative. It counts as physicochemical.
The mark [4] stands for this setting: inhibition of ConA-HRP binding to yeast mannan fixed to microtitration plate, average of three independent experiments, read-out: IC50.

“And” between values parts separate entries of the source, which are not always exact repeats. Identical values can stand only once. Like-named read-outs stand apart in the source and are kept apart here.

Regarding “bis[2-[N′-(6^I-deoxycyclomaltoheptaos-6^I-yl)thioureido]ethyl] 2-[N′-[2-[bis[2-[N′-(α-D-mannopyranosyl)thioureido]ethyl] amino]ethyl]thioureido]ethyl amine [compound no. 7]”, in data set [1] (setting [4]), the IC50 is 265 µM. For the same molecule, in data set [1], the Relative affinity is listed as 3.3 and the Relative molar affinity is given as 1.1.
With “bis[2-[N′-(6^I-deoxycyclomaltoheptaos-6^I-yl)thioureido]ethyl] 2-[N′-[tris(2,3,4,6-tetra-O-acetyl-α-D-mannopyranosyloxy-methyl)methyl]thioureido]lethylamine [compound no. 6]”, the IC50 in data set [1] (setting [4]) stood at 1130 µM. In data set [1], the Relative affinity is 0.76 and the Relative molar affinity is 0.38. The “stability of the Taxotere complex in solution once formed” value in data set [2] is on record as “remains in solution at ambient temperature”.
For the molecule “bis[2-[N′-(6^I-deoxycyclomaltoheptaos-6^I-yl)thioureido]ethyl] 2-(N′-methylthioureido)ethylamine [compound no. 3]”, the “solubility of the Taxotere in a solution of the compound” value in data set [2] (10 mmol.l^−1 of compound in sterile water, stirred at 70° C. until clear) was found to be 8300 µg/mL. Further, in data set [2] (ambient temperature, after complexation at 70° C.), the “stability of the Taxotere complex in solution once formed” value is given as “remains in solution at ambient temperature”.
Take “bis[2-[N′-(6^I-deoxycyclomaltoheptaos-6^I-yl)thioureido]ethyl] 2-[N′-[2-[bis[2-[N′-[tris(α-D-mannopyranosyloxymethyl) methyl]thioureido]ethyl] amino]ethyl]thioureido]ethylamine [compound no. 8]”: the IC50 in data set [1] (setting [4]) stood at 49 µM. Further, in data set [1], the Relative affinity was found to be 17.7 and the Relative molar affinity was 2.9. Besides, the “times more effectively recognized by ConA compared with the monovalent cyclodextrin dimer derivative, compound no. 5” value in data set [1] (versus compound no. 5) is recorded as “up to 25 times”.
As for `OC[C@H]1O[C@@H]2O[C@H]3[C@H](O)[C@@H](O)[C@@H](O[C@H]4[C@H](O)[C@@H](O)[C@@H](O[C@H]5[C@H](O)[C@@H](O)[C@@H](O[C@H]6[C@H](O)[C@@H](O)[C@@H](O[C@H]7[C@H](O)[C@@H](O)[C@@H](O[C@H]8[C@H](O)[C@@H](O)[C@@H](O[C@H]1[C@H](O)[C@H]2O)O[C@@H]8CO)O[C@@H]7CO)O[C@@H]6CO)O[C@@H]5CNC(=S)NCCN(CCNC(=S)NC[C@H]1O[C@@H]2O[C@H]5[C@H](O)[C@@H](O)[C@@H](O[C@H]6[C@H](O)[C@@H](O)[C@@H](O[C@H]7[C@H](O)[C@@H](O)[C@@H](O[C@H]8[C@H](O)[C@@H](O)[C@@H](O[C@H]9[C@H](O)[C@@H](O)[C@@H](O[C@H]%10[C@H](O)[C@@H](O)[C@@H](O[C@H]1[C@H](O)[C@H]2O)O[C@@H]%10CO)O[C@@H]9CO)O[C@@H]8CO)O[C@@H]7CO)O[C@@H]6CO)O[C@@H]5CO)CCNC(=S)Nc1ccccc1)O[C@@H]4CO)O[C@@H]3CO` [compound no. 4, bis[2-[N′-(6^I-deoxycyclomaltoheptaos-6^I-yl)thioureido]ethyl] 2-(N′-phenylthioureido)ethylamine], the solubility in water in data set [3] is 115 g·L^−1 and 62 mmol·L^−1.
Regarding `CO[C@H]1O[C@H](CO)[C@@H](O)[C@H](O)[C@H]1O` [Me-α-D-Glcp, methyl-α-D-glucopyranoside, reference compound], in data set [1], the IC50 came out at 865 µM, the Relative affinity was 1 and the Relative molar affinity came to 1.
As to “bis[2-[N′-(6^I-deoxycyclomaltoheptaos-6^I-yl)thioureido]ethyl] 2- [N′-(α-D-mannopyranosyl)thioureido]ethylamine [compound no. 5]”, the IC50 in data set [1] (setting [4]) turned out to be 1290 µM. Further, in data set [1], the Relative affinity is recorded as 0.67 and the Relative molar affinity was determined as 0.67.
